Source: patent publication US20250129086A1, “COMPOUND FOR DEGRADING EGFR PROTEIN AND USE THEREOF” (TYK MEDICINES, INC., priority 2021, published 2025)

Tests used:
Type in all cases: cell-based, human
[1] = system: H1975 (EGFR L858R/T790M double mutation); assay: Cell antiproliferative assay (CTG, 72 h), H1975; conditions: Table 2, H1975 cells
Description: (§1) Test Example 1 Cell Antiproliferative Assay
(§2) H1975: with EGFR: L858R/T790M double mutation; PC-9 with EGFR exon 19 deletion, HCC827 with exon 19 deletion mutation. CellCounting-Lite2.0, Trypsin EDTA, 37° C. CO2 incubator, cell counter, EnVision Serial No.1050454. II. Experimental preparation:
(§3) • (A) Trypsin EDTA was used to digest log-phase cells, medium was added to terminate the reaction, and a cell suspension was made by blowing and mixing with a pipette. • (B) Cell concentration was determined using Vi-cell, and a suspension of 15,000-25,000 cells per milliliter was made depending on the purpose of the experiment and the characteristics of the cells. • (C) After the cell suspension was prepared, it was gently mixed and 100 microliters per well was added so that the density of cells to be tested was 1500-2500 per well.
(§4) • (A) About 2 mg of compound was weighed, and the volume of DMSO required was calculated according to the formula: compound mass (mg)*compound purity (%)/compound molecular weight*1000 • (B) The inoculated cell culture plates were incubated in an incubator and the compounds with concentration gradient were added after about 24 hours. • (C)10 Mm of compound stock solution was diluted to […] with medium, and 50 Mm of compound solution was added sequentially to the second column of the deep-well plate, and […] of medium containing 0.5% DMSO was added to the third to eleventh columns. • (D) Gradient dilution: 125 μl of solution was pipetted from the second column and added to the third column, after mixing; another 125 μl of solution was pipetted from the third column and added to the fourth column, and the operation was repeated until the tenth column. • (E)25 μl of compound was pipetted from the deep-well plate into a 96-well culture plate using a multichannel pipette, and each compound was repeated three times on the 96-well plate. A maximum concentration of 10,000 nm with concentration gradient of 1:4 was eventually formed on the 96-well plate.
(§5) • (A)96-well plates were incubated in an incubator for 72 h. The effect of the compounds was observed under an inverted microscope. • (B)25 μl of CTG solution was added to each well, the plate was put on shaker for 10 minutes and the […] of each well was read.
(§6) The cell viability rate (% Cell Viability) was calculated using the following formula: • % Cell Viability=100%×(Lum_Sample-Lum_LC)/(Lum_HC-Lum_LC) • Lum_HC: Cell reading of 0.1% DMSO control • Lum_Sample: Cell reading with compound added • Lum_LC: Reading of Blank media • IC50 values were obtained by curve fitting with GraphPad Prism 8 software.

[2] = system: PC-9 (EGFR exon 19 deletion); assay: Cell antiproliferative assay (CTG, 72 h), PC-9; conditions: Homo sapiens, PC-9, 72 h, Table 2, PC-9 cells
Description: as §1, §2, §3, §4, §5, §6

[3] = system: HCC827 (exon 19 deletion mutation); assay: Cell antiproliferative assay (CTG, 72 h), HCC827; conditions: Homo sapiens, HCC827, 72 h, Table 2, HCC827 cells
Description: as §1, §2, §3, §4, §5, §6

IC50 ([1]; Homo sapiens, NCI-H1975, 72 h)	IC50 [2]	IC50 [3]	IC50 [1]	SMILES
10 to 100 nM	100 to 1000 nM	100 to 1000 nM		COc1cc(N2CCC(N(C)C(=O)CN3CCC(c4ccc(NC5CCC(=O)NC5=O)cc4)CC3)CC2)ccc1Nc1ncc(Cl)c(Nc2ccccc2C(C)=O)n1 (stereo not shown) [Compound T-353]
≤ 10 nM	10 to 100 nM	10 to 100 nM		CNC(=O)c1ccccc1Nc1nc(Nc2cc(C)c(N3CCN(C(=O)CN4CCC(c5ccc(NC6CCC(=O)NC6=O)cc5)CC4)CC3)cc2OC)ncc1Br (stereo not shown) [Compound T-255]
≤ 10 nM	10 to 100 nM	10 to 100 nM		CNC(=O)c1ccccc1Nc1nc(Nc2ccc(N3CCN(C(=O)CN4CCC(c5ccc(NC6CCC(=O)NC6=O)cc5F)CC4)CC3)cc2OC)ncc1Br (stereo not shown) [Compound T-295]
10 to 100 nM	100 to 1000 nM	100 to 1000 nM		COc1cc(N2C[C@H]3CN(C(=O)CN4CCN(c5ccc(NC6CCC(=O)NC6=O)cc5)CC4)C[C@H]3C2)ccc1Nc1ncc(Cl)c(Nc2ccccc2C(C)=O)n1 (stereo partly shown) [Compound T-189]
10 to 100 nM	10 to 100 nM	10 to 100 nM		COc1cc(N2CCN(C(=O)CN3CCC(c4ccc(NC5CCC(=O)NC5=O)cc4)CC3)CC2)ncc1Nc1ncc(Cl)c(Nc2ccccc2C(C)=O)n1 (stereo not shown) [Compound T-244]
100 to 1000 nM				COc1cc(N2CCN(CCCN3CCC(c4ccc(NC5CCC(=O)NC5=O)cc4)CC3)CC2)ccc1Nc1ncc(Cl)c(Nc2ccccc2C(C)=O)n1 (stereo not shown) [Compound T-183]
100 to 1000 nM	≥ 1000 nM	≥ 1000 nM		COc1cc(N2CCC(CN3CCN(c4ccc5c(c4)C(=O)N(C4CCC(=O)NC4=O)C5=O)CC3)CC2)ccc1Nc1ncc(Cl)c(Nc2ccccc2C(C)=O)n1 (stereo not shown) [Compound T-225]
100 to 1000 nM				COc1cc(N2CCN(C(=O)C3CCN(CC4CCN(c5ccc6c(c5)C(=O)N(C5CCC(=O)NC5=O)C6=O)CC4)CC3)CC2)ccc1Nc1ncc(Cl)c(Nc2ccccc2C(C)=O)n1 (stereo not shown) [Compound T-204]
10 to 100 nM				CCc1cc(Nc2ncc(Br)c(Nc3ccccc3C(=O)NC)n2)c(OC)cc1N1CCN(C(=O)CN2CCC(c3ccc(NC4CCC(=O)NC4=O)cc3)CC2)CC1 (stereo not shown) [Compound T-362]
10 to 100 nM				CCNC(=O)c1ccccc1Nc1nc(Nc2ccc(N3CCN(C(=O)CN4CCC(c5ccc(NC6CCC(=O)NC6=O)cc5)CC4)CC3)cc2OC)ncc1Br (stereo not shown) [Compound T-374]
100 to 1000 nM				COc1cc(N2CCN(CC(=O)NCCNc3cccc4c3C(=O)N(C3CCC(=O)NC3=O)C4=O)CC2)ccc1Nc1ncc(Cl)c(Nc2ccccc2C(C)=O)n1 (stereo not shown) [Compound T-238]
10 to 100 nM				CCc1cc(Nc2ncc(C(F)(F)F)c(Nc3ccccc3C(=O)NC)n2)c(OC)cc1N1CCN(C(=O)CN2CCC(c3ccc(NC4CCC(=O)NC4=O)cc3)CC2)CC1 (stereo not shown) [Compound T-363]
10 to 100 nM				CCc1cc(Nc2ncc(Cl)c(Nc3ccccc3C(C)=O)n2)c(OC)cc1N1CCN(C(=O)CN2CCC(c3ccc(NC4CCC(=O)NC4=O)cc3)CC2)CC1 (stereo not shown) [Compound T-378]
			10 to 100 nM	CCc1cc(Nc2ncc(Cl)c(Nc3ccccc3C(=O)NC)n2)c(OC)cc1N1CCN(C(=O)CN2CCC(c3ccc(NC4CCC(=O)NC4=O)cc3)CC2)CC1 (stereo not shown) [Compound T-375]
100 to 1000 nM				COC(=O)c1ccccc1Nc1nc(Nc2ccc(N3CCN(C(=O)CN4CCC(c5ccc(NC6CCC(=O)NC6=O)cc5)CC4)CC3)cc2OC)ncc1Cl (stereo not shown) [Compound T-194]
10 to 100 nM				CNC(=O)c1ccccc1Nc1nc(Nc2cc(CC(F)(F)F)c(N3CCN(C(=O)CN4CCC(c5ccc(NC6CCC(=O)NC6=O)cc5)CC4)CC3)cc2OC)ncc1Cl (stereo not shown) [Compound T-377]
100 to 1000 nM				COc1cc(N2CCN(C(=O)CNc3ccc4c(c3)C(=O)N(C3CCC(=O)NC3=O)C4=O)CC2)ccc1Nc1ncc(Cl)c(Nc2ccccc2C(C)=O)n1 (stereo not shown) [Compound T-230]
10 to 100 nM				CNC(=O)c1ccccc1Nc1nc(Nc2cc(C)c(N3CCN(C(=O)CN4CCN(c5ccc(NC6CCC(=O)NC6=O)cc5)CC4)CC3)cc2OC)ncc1Cl (stereo not shown) [Compound T-364]
100 to 1000 nM				COc1cc(N2CCN(C(=O)CN3CCN(c4ccc5c(c4)C(=O)N(C4CCC(=O)NC4=O)C5=O)CC3)CC2)ccc1Nc1ncc(Cl)c(Nc2ccccc2C(C)=O)n1 (stereo not shown) [Compound T-201]
